# Data reported in PMC6934184, “Selective DNA-PKcs inhibition extends the therapeutic index of localized radiotherapy and chemotherapy” (The Journal of Clinical Investigation, 2019).
# Target: T1, NUAK1 (ARK5) (Homo sapiens, UniProt O60285)
# T1 construct: purchased Thermo Fisher Scientific (Life Technologies) SelectScreen
# Assay: SelectScreen Adapta
# Type: biochemical
# Method: The in vitro kinase selectivity of NU5455 was determined using the SelectScreen Broad Assay Panel (Thermo Fisher Scientific) involving activity and binding assays (Supplemental Table 1). […] Class IA PI3Ks were measured using the p85α subunit.
# Kinase [ATP] % Assay Kinase [ATP] % Assay Kinase [ATP] % Assay Kinase [ATP] % Assay […]
# SNF1LK2 Km app 26.6 Z MINK1 Km app 4.6 Z NUAK1 (ARK5) Km app 1.2 A AMPK (A2/B2/G2) n/a -2.6 L […]
# SGK (SGK1) Km app 8.5 Z MAP4K2 (GCK) Km app 2.7 Z TLK2 n/a -0.3 L STK38 (NDR) n/a -5.9 L
# MERTK (cMER) Km app 8.3 Z CDK2/cyclin A Km app 2.7 Z TGFBR1 (ALK5) n/a -0.4 L MATK (HYL) Km app -6.3 Z
# FYN Km app 8.3 Z EPHA1 Km app 2.7 Z CLK3 Km app -0.5 Z ABL1 E255K Km app -6.6 Z
# TEC n/a 8.1 L CDK2/cyclin E1 n/a 2.7 L MAP3K14 (NIK) n/a -0.5 L STK17A (DRAK1) n/a -6.6 L
# KIT V654A n/a 8.1 L TESK2 n/a 2.7 L AKT3 (PKB gamma) Km app -0.5 Z JAK2 JH1 JH2 Km app -6.7 Z
# ROS1 Km app 8.0 Z SPHK1 Km app 2.7 A MAP3K9 (MLK1) Km app -0.5 Z PRKACB (PRKAC beta) n/a -6.8 L
# FGFR3 K650E Km app 7.9 Z AMPK A2/B1/G1 Km app 2.6 Z IKBKB (IKK beta) Km app -0.6 Z PDGFRA (PDGFR alpha) Km app -6.8 Z
# RAF1 (cRAF) Y340D Y341D 100 7.9 Z DYRK3 Km app 2.6 Z CAMK2A (CaMKII alpha) Km app -0.6 Z NEK9 Km app -7.2 Z
# PI4KA (PI4K alpha) 10 7.8 A CSNK1D (CK1 delta) Km app 2.6 Z PRKCB1 (PKC beta I) Km app -0.7 Z PDK1 Km app -7.3 Z
# HIPK2 Km app 7.8 Z ACVR2A n/a 2.5 L TTK n/a -0.7 L RPS6KB1 (p70S6K) Km app -7.8 Z […]
# T1 sequence (O60285 whole entry): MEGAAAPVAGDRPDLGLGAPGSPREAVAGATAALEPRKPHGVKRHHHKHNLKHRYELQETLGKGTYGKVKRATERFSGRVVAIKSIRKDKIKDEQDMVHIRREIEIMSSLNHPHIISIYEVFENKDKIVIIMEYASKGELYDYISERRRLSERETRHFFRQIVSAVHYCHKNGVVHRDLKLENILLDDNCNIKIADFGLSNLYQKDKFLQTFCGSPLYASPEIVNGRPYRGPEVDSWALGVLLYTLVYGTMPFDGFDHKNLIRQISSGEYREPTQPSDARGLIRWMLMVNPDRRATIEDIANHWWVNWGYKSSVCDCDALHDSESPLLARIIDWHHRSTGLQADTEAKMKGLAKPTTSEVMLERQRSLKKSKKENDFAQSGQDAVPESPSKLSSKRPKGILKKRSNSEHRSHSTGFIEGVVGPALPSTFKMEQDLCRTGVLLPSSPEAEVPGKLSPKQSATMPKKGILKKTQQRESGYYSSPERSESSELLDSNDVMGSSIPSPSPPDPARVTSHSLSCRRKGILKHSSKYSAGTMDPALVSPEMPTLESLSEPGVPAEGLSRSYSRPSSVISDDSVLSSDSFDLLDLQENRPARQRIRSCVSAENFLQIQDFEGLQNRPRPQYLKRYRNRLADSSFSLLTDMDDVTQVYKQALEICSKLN
smiles,measurement,value
CN(C(=O)CN1CCOCC1)c1ccc2sc3c(-c4cccc5c(=O)cc(N6CC7CCC(C6)O7)oc45)cccc3c2c1 [NU5455],inhibition at 1 µM,1.2%
